Test results from patent US9611256B2, “Alkyne-, azide- and triazole-containing flavonoids as modulators for multidrug resistance in cancers” (The Hong Kong Polytechnic University, priority 2012, dated 2017).

Assays:
in vitro = details: mouse
BCRP [1] = target: T1, BCRP (Homo sapiens, UniProt Q9UNQ0); test: cell-based
T1 sequence (Q9UNQ0 1-655): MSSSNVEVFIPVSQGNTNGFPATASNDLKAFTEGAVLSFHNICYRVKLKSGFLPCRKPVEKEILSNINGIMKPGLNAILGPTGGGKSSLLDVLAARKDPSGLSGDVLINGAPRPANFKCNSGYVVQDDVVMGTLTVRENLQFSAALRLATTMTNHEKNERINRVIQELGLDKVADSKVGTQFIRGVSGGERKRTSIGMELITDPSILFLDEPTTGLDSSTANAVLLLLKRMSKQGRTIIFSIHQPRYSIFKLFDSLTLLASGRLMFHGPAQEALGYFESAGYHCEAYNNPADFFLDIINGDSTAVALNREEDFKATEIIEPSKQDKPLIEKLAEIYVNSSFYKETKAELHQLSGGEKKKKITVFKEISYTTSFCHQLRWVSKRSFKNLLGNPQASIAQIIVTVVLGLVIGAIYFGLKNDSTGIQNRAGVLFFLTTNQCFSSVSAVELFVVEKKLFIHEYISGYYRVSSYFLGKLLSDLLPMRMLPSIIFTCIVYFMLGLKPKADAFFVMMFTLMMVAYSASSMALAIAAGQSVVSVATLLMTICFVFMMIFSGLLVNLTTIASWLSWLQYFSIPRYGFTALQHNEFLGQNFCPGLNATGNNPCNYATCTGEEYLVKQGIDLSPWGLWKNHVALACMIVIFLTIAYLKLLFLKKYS

[2] = tested on: P-gp, MRP1 and BCRP transporters; test: Selectivity for ABC transporters, determined from % of reversion (Tables 1 and 2); format: cell-based, human; details: determined from % of reversion in Table 1 (>80% strongly, 79-50% moderately selective)
Description: Generally, the triazole dimers library can be divided into mono-selective, dual-selective and multi-selective ABC transporter modulators. Table 2 summarizes the selectivity of different active triazole dimers and some monomeric azides for the ABC transporters. […] From the study, it seems that the simple monomeric azides could be a highly BCRP-selective inhibitor. […] It is possible that differently selective (mono-, dual- and multi-) inhibitors of drug transporters could be potentially useful tools for investigation of complicated drug-resistance phenotypes and eventually, for treatment of drug-resistant cancers caused by overexpression of ABC transporters.
The selectivity of active triazole compounds for various ABC transporters was determined from the Table 1. It would be considered as strongly selective if it causes >80% of reversion. It would be considered as moderately selective if it results in 79-50% of reversion. Overall, the active triazole compounds can be divided into mono-, dual- and multi-selective for P-gp, MRP1 and BCRP transporters.

BCRP [3] = target: T1, BCRP; test: Reversal of BCRP-mediated topotecan resistance in MCF7-MX100 cells (cell proliferation assay); details: for Topotecan resistance of MCF7-MX100 Therapeutic index: (IC50 towards L929 or Raw264.7)/(EC50 for reversing drug resistance); for % of reversion of sensitivity of MCF7-MX100 towards topotecan: triazole dimers at 1.0 μM
MRP1 = MRP1 (Homo sapiens, UniProt P33527); test: Reversal of MRP1-mediated DOX resistance in 2008/MRP1 cells (cell proliferation assay); details: for % of reversion of sensitivity of 2008/MRP1 towards DOX: triazole dimers at 1.0 μM; for DOX resistance of 2008/MRP1 Therapeutic index: (IC50 towards L929 or Raw264.7)/(EC50 for reversing drug resistance)
Chain of MRP1 (P33527 whole entry): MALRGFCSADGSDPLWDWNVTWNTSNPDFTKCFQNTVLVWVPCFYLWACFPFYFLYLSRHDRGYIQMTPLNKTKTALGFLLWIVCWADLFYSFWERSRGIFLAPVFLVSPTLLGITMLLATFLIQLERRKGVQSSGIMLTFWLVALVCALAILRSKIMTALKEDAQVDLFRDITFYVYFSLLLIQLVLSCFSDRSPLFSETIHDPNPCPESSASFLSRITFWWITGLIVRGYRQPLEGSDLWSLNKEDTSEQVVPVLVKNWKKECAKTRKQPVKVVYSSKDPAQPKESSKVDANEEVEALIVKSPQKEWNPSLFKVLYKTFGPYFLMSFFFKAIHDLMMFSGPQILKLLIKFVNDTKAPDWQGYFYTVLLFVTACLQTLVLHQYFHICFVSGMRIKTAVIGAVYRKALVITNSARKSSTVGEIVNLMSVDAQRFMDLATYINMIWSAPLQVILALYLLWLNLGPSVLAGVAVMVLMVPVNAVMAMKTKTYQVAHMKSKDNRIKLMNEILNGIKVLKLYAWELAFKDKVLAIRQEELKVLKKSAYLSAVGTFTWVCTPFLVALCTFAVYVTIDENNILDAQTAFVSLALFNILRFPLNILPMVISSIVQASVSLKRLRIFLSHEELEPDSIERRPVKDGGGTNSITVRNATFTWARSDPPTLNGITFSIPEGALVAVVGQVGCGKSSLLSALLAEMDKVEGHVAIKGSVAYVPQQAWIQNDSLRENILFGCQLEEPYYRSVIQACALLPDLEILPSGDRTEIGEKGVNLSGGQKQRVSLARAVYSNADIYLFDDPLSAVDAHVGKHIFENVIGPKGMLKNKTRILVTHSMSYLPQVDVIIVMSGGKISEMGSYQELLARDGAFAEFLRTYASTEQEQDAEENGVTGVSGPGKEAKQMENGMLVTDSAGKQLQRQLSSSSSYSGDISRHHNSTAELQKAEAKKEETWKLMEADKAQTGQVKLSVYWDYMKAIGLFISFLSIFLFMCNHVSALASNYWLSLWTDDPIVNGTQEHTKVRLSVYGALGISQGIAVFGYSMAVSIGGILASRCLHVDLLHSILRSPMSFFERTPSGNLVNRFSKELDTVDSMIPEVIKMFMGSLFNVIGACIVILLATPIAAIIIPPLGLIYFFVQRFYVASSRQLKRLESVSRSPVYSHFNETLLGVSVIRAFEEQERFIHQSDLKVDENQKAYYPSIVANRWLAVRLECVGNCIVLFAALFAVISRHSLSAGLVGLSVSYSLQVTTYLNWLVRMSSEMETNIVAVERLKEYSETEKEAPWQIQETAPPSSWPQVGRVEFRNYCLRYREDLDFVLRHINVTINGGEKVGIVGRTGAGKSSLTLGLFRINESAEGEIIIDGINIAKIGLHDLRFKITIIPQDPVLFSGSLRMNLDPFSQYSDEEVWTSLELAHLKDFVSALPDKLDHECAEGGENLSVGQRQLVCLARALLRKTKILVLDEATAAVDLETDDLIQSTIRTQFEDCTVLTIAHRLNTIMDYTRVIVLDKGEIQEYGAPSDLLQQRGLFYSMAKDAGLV

Row | Compound | IC50 at 5 days (in vitro) | EC50 (BCRP [1]) | Selectivity for ABC transporters (P-gp, MRP1, BCRP) [2] | Topotecan resistance of MCF7-MX100 Therapeutic index (BCRP [3]) | % of reversion of sensitivity of MCF7-MX100 towards topotecan (BCRP [3]) | % of reversion of sensitivity of 2008/MRP1 towards DOX (MRP1) | DOX resistance of 2008/MRP1 Therapeutic index (MRP1)
1 | Cc1ccc2oc(-c3ccc(OCCCCc4cn(CCOCCOCCOc5ccc(-c6cc(=O)c7cc(F)ccc7o6)cc5)nn4)cc3)cc(=O)c2c1 [Ac5Az4, 6-Fluoro-2-(4-(2-(2-(2-(4-(4-(4-(6-methyl-4-oxo-4H-chromen-2-yl)phenoxy)butyl)-1H-1,2,3-triazol-1-yl)ethoxy)ethoxy)ethoxy)phenyl)-4H-chromen-4-one] | > 100 µM | 0.018 µM |  |  |  |  | 
2 | Cc1ccc2oc(-c3ccc(OCCCCc4cn(CCOCCOCCOc5ccc(-c6oc7ccccc7c(=O)c6OCc6ccccc6)cc5)nn4)cc3)cc(=O)c2c1 [Ac5Az5, 3-(Benzyloxy)-2-(4-(2-(2-(2-(4-(4-(4-(6-methyl-4-oxo-4H-chromen-2-yl)phenoxy)butyl)-1H-1,2,3-triazol-1-yl)ethoxy)ethoxy)ethoxy)phenyl)-4H-chromen-4-one] | > 100 µM | 0.033 µM | Pgp- and BCRP-dual selectivity |  |  |  | 
3 | COC(=O)c1cccc(COc2c(-c3ccc(OCCOCCn4cc(CCCCOc5ccc(-c6cc(=O)c7cc(C)ccc7o6)cc5)nn4)cc3)oc3ccccc3c2=O)c1 [Ac5Az8, Methyl 3-(((2-(4-(2-(2-(4-(4-(4-(6-methyl-4-oxo-4H-chromen-2-yl)phenoxy)butyl)-1H-1,2,3-triazol-1-yl)ethoxy)ethoxy)phenyl)-4-oxo-4H-chromen-3-yl)oxy)methyl)benzoate] | > 100 µM | ≤ 0.01 µM | Pgp- and BCRP-dual selectivity | >25000.0 | about 64.0% |  | 
4 | COC(=O)c1cccc(COc2c(-c3ccc(OCCOCCOCCn4cc(CCCCOc5ccc(-c6cc(=O)c7cc(C)ccc7o6)cc5)nn4)cc3)oc3ccccc3c2=O)c1 [Ac5Az9, Methyl 3-(((2-(4-(2-(2-(2-(4-(4-(4-(6-methyl-4-oxo-4H-chromen-2-yl)phenoxy)butyl)-1H-1,2,3-triazol-1-yl)ethoxy)ethoxy)ethoxy)phenyl)-4-oxo-4H-chromen-3-yl)oxy)methyl)benzoate] | > 100 µM | ≤ 0.01 µM | multi-selectivity towards P-gp, MRP1 and BCRP transporters | >111111.1 | about 64.0% |  | 
5 | O=C(/C=C/c1ccc(OCCCCc2cn(CCOCCOc3ccc(-c4cc(=O)c5ccccc5o4)cc3)nn2)cc1)c1ccc(F)cc1O [Ac10Az1, (E)-2-(4-(2-(2-(4-(4-(4-(3-(4-Fluoro-2-hydroxyphenyl)-3-oxoprop-1-en-1-yl)phenoxy)butyl)-1H-1,2,3-triazol-1-yl)ethoxy)ethoxy)phenyl)-4H-chromen-4-one] |  |  | MRP1- and BCRP-dual selectivity |  |  | ~54.8% | 
6 | COC(=O)c1cccc(COc2c(-c3ccc(OCCOCCn4cc(CCCCOc5ccc6c(=O)cc(-c7ccccc7)oc6c5)nn4)cc3)oc3ccccc3c2=O)c1 [Ac12Az8, Methyl 3-(((4-oxo-2-(4-(2-(2-(4-(4-((4-oxo-2-phenyl-4H-chromen-7-yl)oxy)butyl)-1H-1,2,3-triazol-1-yl)ethoxy)ethoxy)phenyl)-4H-chromen-3-yl)oxy)methyl)benzoate] | > 100 µM | ≤ 0.01 µM | multi-selectivity towards P-gp, MRP1 and BCRP transporters | >17857.1 | about 80.0% |  | 
7 | O=c1cc(-c2ccc(OCCOCCn3cc(CN(Cc4ccccc4)Cc4cn(CCOCCOc5ccc(-c6cc(=O)c7ccccc7o6)cc5)nn4)nn3)cc2)oc2ccccc12 [Ac15Az1, 2,2′-((((((4,4′-((Benzylazanediyl)bis(methylene))bis(1H-1,2,3-triazole-4,1-diyl))bis(ethane-2,1-diyl))bis(oxy))bis(ethane-2,1-diyl))bis(oxy))bis(4,1-phenylene))bis(4H-chromen-4-one)] | > 100 µM | 0.111 ± 0.009 µM | MRP1- and BCRP-dual selectivity |  |  |  | 
8 | O=c1c(OCc2ccccc2)c(-c2ccc(OCCOCCOCCn3cc(CN(Cc4ccccc4)Cc4cn(CCOCCOCCOc5ccc(-c6oc7ccccc7c(=O)c6OCc6ccccc6)cc5)nn4)nn3)cc2)oc2ccccc12 [Ac15Az5, 2,2′-((((((((4,4′-((Benzylazanediyl)bis(methylene))bis(1H-1,2,3-triazole-4,1-diyl))bis(ethane-2,1-diyl))bis(oxy))bis(ethane-2,1-diyl))bis(oxy))bis(ethane-2,1-diyl))bis(oxy))bis(4,1-phenylene))bis(3-(benzyloxy)-4H-chromen-4-one)] | > 100 µM | 0.048 µM | mono-BCRP selectivity |  |  |  | 
9 | Cc1ccc2oc(-c3ccc(OCCOCCOCCn4cc(CN(CCOc5ccc6c(=O)cc(-c7ccccc7)oc6c5)Cc5ccccc5)nn4)cc3)cc(=O)c2c1 [Ac16Az3, 7-(2-(Benzyl((1-(2-(2-(2-(4-(6-methyl-4-oxo-4H-chromen-2-yl)phenoxy)ethoxy)ethoxy)ethyl)-1H-1,2,3-triazol-4-yl)methyl)amino)ethoxy)-2-phenyl-4H-chromen-4-one] | > 100 µM |  | mono-MRP1 selectivity |  |  |  | >726.2
10 | O=c1cc(-c2ccccc2)oc2cc(OCCN(Cc3ccccc3)Cc3cn(CCOCCOCCOc4ccc(-c5oc6ccccc6c(=O)c5OCc5ccccc5)cc4)nn3)ccc12 [Ac16Az5, 7-(2-(Benzyl((1-(2-(2-(2-(4-(3-(benzyloxy)-4-oxo-4H-chromen-2-yl)phenoxy)ethoxy)ethoxy)ethyl)-1H-1,2,3-triazol-4-yl)methyl)amino)ethoxy)-2-phenyl-4H-chromen-4-one] | > 100 µM |  | mono-MRP1 selectivity |  |  | about 77.8% | >331.5
11 | O=c1cc(-c2ccccc2)oc2cc(OCCOCCOCCn3cc(CN(CCOc4ccc5c(=O)cc(-c6ccccc6)oc5c4)Cc4ccccc4)nn3)ccc12 [Ac16Az12, 7-(2-(Benzyl((1-(2-(2-(2-((4-oxo-2-phenyl-4H-chromen-7-yl)oxy)ethoxy)ethoxy)ethyl)-1H-1,2,3-triazol-4-yl)methyl)amino)ethoxy)-2-phenyl-4H-chromen-4-one] | > 100 µM |  | mono-MRP1 selectivity |  |  |  | >480.8
12 | COC(=O)c1cccc(COc2c(-c3ccc(OCCOCCN=[N+]=[N-])cc3)oc3ccccc3c2=O)c1 [Az8, Methyl 3-(((2-(4-(2-(2-azidoethoxy)ethoxy)phenyl)-4-oxo-4H-chromen-3-yl)oxy)methyl)benzoate] | 67.5 µM |  | mono-BCRP selectivity | 562.5 |  |  | 
13 | [N-]=[N+]=NCCOCCOc1ccc(-c2oc3ccccc3c(=O)c2OCc2ccccc2)cc1 [Az10, 2-(4-(2-(2-Azidoethoxy)ethoxy)phenyl)-3-(benzyloxy)-4H-chromen-4-one] | 51 µM | 0.032 µM | mono-BCRP selectivity |  |  |  | 
